Laboratory results from US20090104124A1, “Paramagnetic Complexes with Pendant Crown Compounds Showing Improved Targeting- Specificity as MRI Contrast Agents” (priority 2007, published 2009).

Columns and labels:
[1] = 1H NMRD profiles (water proton relaxivity); type: physicochemical; details: for D: 25° C., pH 6.9, fits of NMRD profile and 17O NMR
From the text: (§1) Measuring the relaxation rates of an abundant nuclear species as a function of the magnetic field over a wide range is called relaxometry. A relaxometry profile is a plot of the nuclear magnetic relaxation rate, usually 1/T1, as a function of the Larmor frequency or the magnetic field. This profile is also called a Nuclear Magnetic Resonance Dispersion (NMRD) profile. Compared with the NMRD profile, the prominent advantage of the ^17O NMR technique is that it allows the accurate determination of the water exchange rate 1/τM. This is a consequence of the oxygen nucleus being closer to the paramagnetic centre when bound in the inner-sphere, wherein the outer-sphere contributions to the relaxation rates are negligibly small. With the help of NMRD profiles, ^17O NMR measurements, and the Soloman-Bloemnergen-Morgan theory, several important parameters, such as τM, τR, τv, Δ^2 and τH, can be measured.
Water proton nuclear magnetic resonance dispersion NMRD profile is used to record the longitudinal water proton relaxation rates as a function of magnetic fields. The method is, in principle, sensitive to all of the parameters that influence relaxivity. […] The relaxometer worked under complete control with an absolute uncertainty in 1/T1 of ±2%. The NMRD profiles were measured using 1-2 mM solutions of the complexes.

[2] = Variable-temperature 17O NMR transverse relaxation (water exchange); type: physicochemical; details: for TM (derived from VT 17O NMR spectroscopy): 25° C., pH 6.9; for exchange lifetime τM of the inner-sphere coordinated water molecules: 298 K (25° C.), 2.12 T
From the text: as §1
The variable-temperature ^17O NMR measurements were recorded on a JEOL EX-90 (2.1 T) spectrometer that was equipped with a 5 mm probe, by using a D2O external lock. The experimental settings were: spectral width of 10000 Hz, pulse width of 7 μs, acquisition time of 10 ms, 1000 scans, and no sample spinning. Solutions containing 2.6% of ^17O isotope were used. The observed transverse relaxation rates (R2obs^0) were calculated from the signal width at half height.

MIHA cells [3] = assay: AO/EB staining, laser scanning confocal microscopy of cell morphology; type: cell-based; details: 10 μM, up to 24 h of incubation
Method: MIHA cells in the absence (control) and presence of Gd-DOTA (10 μM), Gd-DO3A (10 μM), and GdL1 (10 μM) incubated at 37° C. and 5% CO2, 95% air in a humidified incubator for 1 h, 2 h, 8 h, and 24 h, respectively.
Based on cell morphology and cell membrane integrity, normal, necrotic, and apoptotic cells can be distinguished using laser confocal microscopy. FIG. 22 gives the cell morphology in the absence and presence of Gd-DOTA (10 μM), Gd-DO3A (10 μM), and GdL1 (10 μM) at various time intervals after the incubation. In the absence or presence of the Gd^3+ complexes, the nuclei of the living cells were stained as bright blue spots in the nucleus.

liver parenchyma = assay: In vivo MRI, hepatic intensity enhancement (T1-weighted); set-up: species or system male Sprague-Dawley (SD) rats; details: rat
Method: (§2) To study the MRI contrast and biodistribution behavior of gadolinium complexes […] pendant crown ethers, experiments were performed using male Sprague-Dawley (SD) rats that weighted 150-180 g, and were housed at the Wuhan Institute of Physical and Mathematics of the Chinese Academy of Sciences (Wuhan, Hubei Province, China). All procedures conformed to the institutional guidelines for animal welfare. The rat was injected via the femoral vein with 1 mL saline solution of GdL1 in concentrations of 0.1, 0.033, and 0.02 mM/kg, which are the standard dosage, one third and one fifth of the standard dosage used in clinic currently. MR imaging was performed on a 4.7 T Bruker BIO-SPEC-47/30 MRI scanner with a custom spiral surface coil. The animal was scanned in the prone position in the MRI experiment. […] The total duration of the dynamic scanning lasted up to 400 min after the administration, with an image every 4 min. A water tube was placed in the field of view as a phantom reference. The intensity enhancement (IE) of the region of interest (RI) at time point t is expressed by IE=100% (RI(t)-RI(0))/RI(0) where RI(t) corresponds to the normalized signal intensity as measured at time point, t and RI(0) is the normalized signal intensity precontrast.

[4] = 20 MHz, 298 K; cited from earlier work
[5] = 298 K; cited from earlier work
[6] = complex with Gd^3+; cited from earlier work
kidney cortex = assay: In vivo MRI, renal intensity enhancement (T1-weighted); set-up: species or system male Sprague-Dawley (SD) rats; details: rat, 0.1 mmol/kg
Method: as §2

MIHA cells [7] = assay: In vitro cytotoxicity, cell proliferation assay (MTT / XTT-based); details: 1×10^−2 M, 24 h incubation
Method: To further investigate the potential ability of GdL1 as an NMRI contrast agent, its cytotoxicity was measured by MTT assay. The toxicity of GdL1 was determined from the dose-dependence of surviving cells after exposure to this Gd^3+ complex at different time intervals. For comparison, the cytotoxicities of Gd-DOTA and Gd-DO3A were measured under the same conditions.
To evaluate the toxicity of prepared Gd^3+ complexes, a colorimetric assay (XTT-based) for the non-radioactive quantification of cell proliferation was applied. In the cell proliferating process, the added tetrazolium salt XTT was cleaved to a formazan dye by metabolically active cells, and the quantification of cell growth was achieved by the variation of the absorbance at 492 nm. Seed MIHA Cells at a concentration of 5×10^3 cells/well (tissue culture grade, 96 wells, flat bottom) were added to Gd^3+ complexes (0.625-10 mM) in a humidified atmosphere (37° C., 6.5% CO2). Different concentrations of drugs were adjusted by performing serial dilution. The incubation period of the cell culture ranged from 1, 2, 8, and 24 hrs. XTT dye at a concentration of 5 mg/mL (sigma, St. Louis, Mo.) was added, and the plates were incubated for 12 h in a moist chamber at 37° C. The optical density was determined by eluting the dye with dimethyl sulfoxide, and the absorbance was measured at 570 nm. […]

[8] = Luminescence lifetime measurements of Tb complexes for hydration number q; type: physicochemical; details: for kH2O, absolute emission depopulation rate constant in H2O: pH 6.9 (0.1 M Tris/HCl), 298 K, ±10%; for inner-sphere coordinated (bound) water molecules, luminescent measurements: pH 6.9
From the text: As previously mentioned, inner-sphere proton relaxivity is linearly proportional to the number of water molecules q that are directly coordinated to the Gd^3+ center. However, there is a trade-off between the q value and toxicity. […] It is noteworthy that there is no direct method of measuring the hydration number. The two commonly used indirect methods are as follows: (1) Lanthanide-induced shift (LIS) methods (see, Alpoim et al., J. Chem. Soc., Dalton Trans., 1992, 463). For paramagnetic Ln^3+ ions, the plot of the observed ^17O shift in Ln^3+ chelate solution versus the complex concentration gives a straight line, with the slope being proportional to its hydration number. (2) The lanthanide luminescence method. According to the Horrocks equation, the q value can be calculated by the emission rate constants for the depopulation of Tb^3+ or Eu^3+ complexes measured in H2O and D2O (see, Beeby at al., J. Chem. Soc., Perkin Trans. 2, 1999, 493). With this method, the q values of the Gd^3+ complexes in aqueous solution can be measured indirectly by their corresponding Tb^3+ or Eu^3+ complexes, because of the very similar coordination behavior between these three lanthanide ions.
Luminescence lifetime measurements were all obtained on a Perkin-Elmer LS 50B spectrofluorimeter with a 420 nm cut-off filter. The concentration of the complex was 1×10^−5˜1×10^−4 mol dm^−3. The emission of Tb^3+ or EU^3+ complexes was monitored at […]. Gd^3+ is a neighbor of Eu^3+ and Tb^3+ with a nearly identical ionic radius, and thus their chemistries are virtually identical. Therefore, the Horrocks equation for determining the number of coordinated water molecules q for Eu^3+ and Tb^3+ is still valid for the calculation of the q value of Gd^3+. In general, the number of coordinated water molecules q can be determined by the measurement of the luminescent lifetime of the complexes separately in H2O and D2O by application of the Horrocks equation.
qcorr=A(kH2O−kD2O−a)
where k is the constant for depopulation (reciprocal of luminescent lifetime), and A is a proportionality constant that signifies the sensitivity of the lanthanide ion to vibronic quenching by OH oscillators. a is correlation value for the consideration of the outer-sphere water molecules.

SMILES | D [1] | TM (derived from VT 17O NMR spectroscopy) [2] | exchange lifetime τM of the inner-sphere coordinated water molecules [2] | apoptotic or necrotic cells (cell morphology, AO/EB) (MIHA cells [3]) | kH2O, absolute emission depopulation rate constant in H2O [8] | other results
O=C([O-])CN1CCNCCN(CC(=O)[O-])CCN(CC(=O)[O-])CC1.[Gd+3] [Gd-DO3A, reference compound] | 2.24E−5 cm^2s^−1 | 160 ns | 160 ns | no obvious apoptotic or necrotic cells were found |  | 
O=C([O-])CN1CCN(CC(=O)[O-])CCN(CC(=O)O)CCN(CC(=O)[O-])CC1.[Gd+3] [Gd-DOTA, reference compound] | 2.24E−5 cm^2s^−1 | 300 ns | 245 ns | no obvious apoptotic or necrotic cells were found |  | maximal hepatic IE (liver parenchyma; 0.02 mmol/kg (1/5 of standard dose)): no remarkable hepatic IE was detected; relaxivity r1p (typical values) [4]: 4.74 mM⁻¹ s⁻¹; bound water molecular resident lifetime τM (typical values) [5]: about 244 ns
O=C([O-])CN(CCN(CC(=O)[O-])CC(=O)O)CCN(CC(=O)[O-])CC(=O)O.[Gd+3] [Gd-DTPA] | 2.24E−5 cm^2s^−1 | 250 ns |  |  |  | relaxivity r1p (typical values) [4]: 4.69 mM⁻¹ s⁻¹; bound water molecular resident lifetime τM (typical values) [5]: ~303 ns; log K (K = formation constant of the metal complex) [6]: 24.6
O=C([O-])CN1CCN(CCN2CCOCCOCCOCCOCC2)CCN(CC(=O)[O-])CCN(CC(=O)[O-])CC1.[Gd+3] [GdL1] | 2.24E−5 cm^2s^−1 | 55 ns | 55 ns | no obvious apoptotic or necrotic cells were found |  | inner-sphere coordinated water molecules from 1H NMRD profiles [1]: two; renal IE still preserved 250 minutes after injection (kidney cortex): 40%; time after injection of maximal hepatic IE (liver parenchyma; 0.03 mmol/kg): 60 to 100 min; hepatic IE on plateau (liver parenchyma; 0.033 mmol/kg): > 60%; resident lifetime in hepatic tissue (liver parenchyma; 0.1 mmol/kg): > 4 h; viability of the MIHA cells (MIHA cells [7]): not affected obviously
O=C([O-])CN1CCN(CCOCC2COCCOCCOCCOCCO2)CCN(CC(=O)[O-])CCN(CC(=O)[O-])CC1.[Gd+3] (stereo not drawn) [GdL2] | 2.24E−5 cm^2s^−1 | 116 ns | 116 ns |  |  | overall relaxivity r1p ([1]; 20 MHz, pH 10.0): 4.21 mM⁻¹ s⁻¹; level of hepatic enhancement maintained for more than 4 h (liver parenchyma; 0.1 mmol/kg): > 60%; time for which hepatic intensity enhancement was maintained (liver parenchyma; 0.1 mmol/kg): more than 4 h
O=C([O-])CN1CCN(CC(=O)[O-])CCN(CC(=O)N2CCOCCOCCN(Cc3ccc4ccccc4n3)CCOCCOCC2)CCN(CC(=O)[O-])CC1.[Gd+3] [GdL3] | 2.24E−5 cm^2s^−1 | 246 ns | 246 ns |  |  | reorientation lifetime τR [1]: 210 ps; q from NMRD profile ([1]; pH 7.5): 1; level of hepatic enhancement maintained for more than 4 h (liver parenchyma; 0.1 mmol/kg): about 50%; time for which hepatic intensity enhancement was maintained (liver parenchyma; 0.1 mmol/kg): more than 4 h
O=C([O-])CN1CCNCCN(CC(=O)[O-])CCN(CC(=O)[O-])CC1.[Tb+3] [Tb-DO3A, reference compound] |  |  |  |  | 0.88 ms^−1 | 
O=C([O-])CN1CCN(CC(=O)[O-])CCN(CC(=O)[O-])CCN(CC(=O)[O-])CC1.[Tb+3] [Tb-DOTA, reference compound] |  |  |  |  | 0.48 ms^−1 | 
O=C([O-])CN1CCN(CCN2CCOCCOCCOCCOCC2)CCN(CC(=O)[O-])CCN(CC(=O)[O-])CC1.[Tb+3] [TbL1] |  |  |  |  | 0.72 ms^−1 | inner-sphere coordinated (bound) water molecules, luminescent measurements [8]: two
O=C([O-])CN1CCN(CC(=O)[O-])CCN(CC(=O)N2CCOCCOCCN(Cc3ccc4ccccc4n3)CCOCCOCC2)CCN(CC(=O)[O-])CC1.[Tb+3] [TbL3] |  |  |  |  | 0.50 ms^−1 | inner-sphere coordinated (bound) water molecules, luminescent measurements [8]: only one
